Test system: cultured human fibroblasts
Test: DNA microarray analysis of gene expression in cultured human fibroblasts treated with peptides
Type: cell-based
Conditions: for Peptide Fluorescent Intensity: TGFB / Peptide Fluorescent Intensity: TGFBR1 / Peptide Fluorescent Intensity: TGFBR3: TGF Family Molecules
Method: Expression levels for a variety of different genes treated with N-M-A-N-A-K (SEQ ID NO: 1) and A-N-V-A-E-N-A (SEQ ID NO: 2) were determined using DNA microarray analysis of cultured human fibroblasts at BioInnovation Laboratories, Inc., Lakewood, Colo.
The microarrays were scanned with an Axon GenePix 4100A Scanner with the scanning resolution set to 10 μm and analyzed with GenePix Pro software. During the initial scan the PMT gains for the scanner were adjusted such that the Cy5/Cy3 image count ratios were between 0.9 and 1.1.
To derive the standard curve for the assay, the relative fluorescent units versus the known RNA concentrations in μg/ml for the standards were plotted and subjected to regression analysis to establish the line that best fit the data points. Mean RFU values for the test materials and untreated samples were used to estimate the amount of RNA present in each sample.
Because the level of gene expression is related to the fluorescence intensity of the probed gene marker on the microarray, and since it is possible to have differences in labeling efficiency when making the Cy3 and Cy5 probes, it is essential to normalize the fluorescence measurements between the two respective dyes before examining changes in gene expression. As a result, fluorescence intensities for the microarrays were subjected to global normalization. The total fluorescent signal for both dyes was normalized with a correction factor so that the ratio of total intensities for both dyes was equal to one.
The resulting normalized total fluorescent signals for peptides, N-M-A-N-A-K (SEQ ID NO: 1) and A-N-V-A-E-N-A (SEQ ID NO: 2) with a variety of gene samples are shown in Table 1.

[1] = 10 ppm peptide, Additional Genes
[2] = 10 ppm peptide, Anti-Inflammatory
[3] = 10 ppm peptide, Extracellular Matrix Genes Regulated by TGF Beta
[4] = 10 ppm peptide, Genes that Regulate Wound Healing (regulated by TGF beta)
[5] = 10 ppm peptide, Molecules that Regulate TGF Beta Expression/Activity
[6] = 10 ppm peptide, TGF Beta Signaling Pathway Molecules

## Asparagine-Methionine-Alanine-Asparagine-Alanine-Lysine (Asn-Met-Ala-Asn-Ala-Lys) [NMANAK]
10 ppm peptide
  number of anti-inflammatory genes upregulated (COX1, COX411, COX7C, COX8A, DEFB4, IL10RB, IL26, IL27, ILF2, ILDR1): ≥ 10
  Peptide Fluorescent Intensity: TGFB: 1.224
  Peptide Fluorescent Intensity: TGFBR1: 0.373
  Peptide Fluorescent Intensity: TGFBR3: 1.229
[1]
  Peptide Fluorescent Intensity: AQP3: 3.294
  Peptide Fluorescent Intensity: EEF1A1 (cell growth): 6.301
  Peptide Fluorescent Intensity: EEF1A2 (cancer cell growth): 0.067
  Peptide Fluorescent Intensity: EEF1G (aminoacyl transferase - glutathione): 1.928
  Peptide Fluorescent Intensity: LOX: 1.035
  Peptide Fluorescent Intensity: OGG1: 1.176
  Peptide Fluorescent Intensity: PLOD: 1.105
  Peptide Fluorescent Intensity: PLOD2: 1.085
  Peptide Fluorescent Intensity: PLOD3: 4.092
  Peptide Fluorescent Intensity: RAD23A: 0.933
  Peptide Fluorescent Intensity: RAD23B: 0.603
  Peptide Fluorescent Intensity: SIRT1: 0.410
  Peptide Fluorescent Intensity: SIRT3: 0.735
  Peptide Fluorescent Intensity: SIRT 5: 1.482
[2]
  Peptide Fluorescent Intensity: COX1: 2.645
  Peptide Fluorescent Intensity: COX7C: 1.341
  Peptide Fluorescent Intensity: COX8A: 1.803
  Peptide Fluorescent Intensity: COX411: 2.067
  Peptide Fluorescent Intensity: DEFB4: 4.798
  Peptide Fluorescent Intensity: IL10RB: 1.889
  Peptide Fluorescent Intensity: IL26: 2.036
  Peptide Fluorescent Intensity: IL27: 2.257
  Peptide Fluorescent Intensity: ILDR1 (immunoglobin receptor): 1.546
  Peptide Fluorescent Intensity: ILF2: 4.120
[3]
  Peptide Fluorescent Intensity: BMP7: 2.000
  Peptide Fluorescent Intensity: COL1A2: 3.992
  Peptide Fluorescent Intensity: COL3A1: 2.047
  Peptide Fluorescent Intensity: COL6A1: 3.446
  Peptide Fluorescent Intensity: COL6A2: 1.705
  Peptide Fluorescent Intensity: COL7: 1.080
  Peptide Fluorescent Intensity: CTGF: 0.429
  Peptide Fluorescent Intensity: EGFR: 1.159
  Peptide Fluorescent Intensity: ELA2A (elastase): 3.148
  Peptide Fluorescent Intensity: ELN: 0.773
  Peptide Fluorescent Intensity: FGF3 (fibroblast growth factor): 2.000
  Peptide Fluorescent Intensity: MMP1: 1.164
  Peptide Fluorescent Intensity: MMP2: 0.785
  Peptide Fluorescent Intensity: PDGFR alpha subunit: 1.608
  Peptide Fluorescent Intensity: TIMP1: 4.057
  Peptide Fluorescent Intensity: Tenascin (TNXB): 1.752
[4]
  Peptide Fluorescent Intensity: FGF2: 0.679
  Peptide Fluorescent Intensity: VEGFA: 1.385
[5]
  Peptide Fluorescent Intensity: Activin A beta subunit (INHBB): 0.095
  Peptide Fluorescent Intensity: BMP1: 0.837
  Peptide Fluorescent Intensity: Follistatin (FST): 0.665
  Peptide Fluorescent Intensity: Inhibin (INHA): 1.917
  Peptide Fluorescent Intensity: LTBP (LTBP1): 0.268
  Peptide Fluorescent Intensity: YY1: 1.378
[6]
  Peptide Fluorescent Intensity: CBP (CREBBP): 0.743
  Peptide Fluorescent Intensity: SAR1A: 1.632
  Peptide Fluorescent Intensity: SP1: 0.932
  Peptide Fluorescent Intensity: Smad1: 0.918
  Peptide Fluorescent Intensity: Smad2: 0.857
  Peptide Fluorescent Intensity: Smad3: 0.882
  Peptide Fluorescent Intensity: Smad4: 0.454
  Peptide Fluorescent Intensity: Smad6: 1.354
  Peptide Fluorescent Intensity: Smad7: 1.160
  Peptide Fluorescent Intensity: p38MAPK (MAPK14): 1.057
10 ppm peptide, in words
  effect on AQP3 (aquaporin3) and EEf1G (glutathione) genes: upregulated
  effect on genes expressing extra-cellular matrix components, including collagen production genes COL1A2, COL3A1, COL6A1 and COL6A2: upregulation
  effect on genes that control TGF-β expression (YY1, INHA): upregulating

## ANVAENA (TGF-beta mimic)
[1]
  Peptide Fluorescent Intensity: LOX: 0.974
  Peptide Fluorescent Intensity: OGG1: 1.364
  Peptide Fluorescent Intensity: PLOD: 1.112
  Peptide Fluorescent Intensity: PLOD2: 0.445
  Peptide Fluorescent Intensity: PLOD3: 3.805
  Peptide Fluorescent Intensity: RAD23A: 0.078
  Peptide Fluorescent Intensity: RAD23B: 1.218
  Peptide Fluorescent Intensity: SIRT1: 0.228
  Peptide Fluorescent Intensity: SIRT3: 0.010
  Peptide Fluorescent Intensity: TERT: 0.198
[3]
  Peptide Fluorescent Intensity: COL1A1: 2.198
  Peptide Fluorescent Intensity: COL1A2: 3.669
  Peptide Fluorescent Intensity: COL3A1: 2.987
  Peptide Fluorescent Intensity: COL4A1: 0.910
  Peptide Fluorescent Intensity: COL6A1: 6.282
  Peptide Fluorescent Intensity: COL6A2: 2.902
  Peptide Fluorescent Intensity: COL7: 0.435
  Peptide Fluorescent Intensity: CTGF: 0.076
  Peptide Fluorescent Intensity: EGFR: 1.133
  Peptide Fluorescent Intensity: Fibronectin: 1.407
  Peptide Fluorescent Intensity: IL-6: 1.135
  Peptide Fluorescent Intensity: MMP1: 1.991
  Peptide Fluorescent Intensity: MMP2: 0.034
  Peptide Fluorescent Intensity: PDGFR alpha subunit: 1.330
  Peptide Fluorescent Intensity: TIMP1: 4.567
  Peptide Fluorescent Intensity: Tenascin (TNXB): 1.353
  Peptide Fluorescent Intensity: βIG-H3 (TGFBI): 2.069
[4]
  Peptide Fluorescent Intensity: FGF2: 0.912
  Peptide Fluorescent Intensity: GM-CSF (CSF2): 0.014
  Peptide Fluorescent Intensity: VEGFA: 0.798
[5]
  Peptide Fluorescent Intensity: Activin A beta subunit (INHBB): 0.261
  Peptide Fluorescent Intensity: BMP1: 0.497
  Peptide Fluorescent Intensity: Follistatin (FST): 0.594
  Peptide Fluorescent Intensity: Inhibin (INHA): 0.264
  Peptide Fluorescent Intensity: LTBP (LTBP1): 0.652
  Peptide Fluorescent Intensity: MMP2: 0.034
  Peptide Fluorescent Intensity: YY1: 0.713
[6]
  Peptide Fluorescent Intensity: CBP (CREBBP): 0.375
  Peptide Fluorescent Intensity: SAR1A: 1.905
  Peptide Fluorescent Intensity: SP1: 0.590
  Peptide Fluorescent Intensity: Smad1: 1.325
  Peptide Fluorescent Intensity: Smad2: 0.824
  Peptide Fluorescent Intensity: Smad3: 1.202
  Peptide Fluorescent Intensity: Smad4: 0.374
  Peptide Fluorescent Intensity: Smad6: 0.136
  Peptide Fluorescent Intensity: Smad7: 0.357
  Peptide Fluorescent Intensity: p38MAPK (MAPK14): 0.594
  Peptide Fluorescent Intensity: p300 (EP300): 0.961
10 ppm peptide
  Peptide Fluorescent Intensity: TGFB: 0.113
  Peptide Fluorescent Intensity: TGFBR1: 0.128
  Peptide Fluorescent Intensity: TGFBR3: 0.098
Peptide alone, in words
  impact on anti-inflammatory genes: does not impact anti-inflammatory genes significantly
